Test results: ChEMBL document CHEMBL3351946, “Design and synthesis of potent antitumor water-soluble phenyl N-mustard-benzenealkylamide conjugates via a bioisostere approach” (Eur J Med Chem, 2014)
Activity calls are given as the source filed them. No cut-off for these calls is given here.

Tests used:
Mus musculus [1] = experiment: Toxicity in CD-1 (ICR) mouse assessed as decrease in food consumption at 75 to 105 mg/kg, iv measured on day 8; assay type: organism-based; design: dose 75-105 mg/kg, route intravenous; conditions: in vivo
[2] = Cell cycle arrest in human HCT116 cells assessed as accumulation at G1 phase at 1 uM after 72 hrs by FACS flow cytometric analysis (reference value: 76.29 +/- 2.65%); assay type: functional, cell-based; conditions: HCT-116
HCT-116 = experiment: Induction of DNA interstand crosslinking in human HCT116 cells under aerobic condition assessed as decrease in tail moment at 0.5 to 1 uM preincubated for 1 hr followed by 20 Gy X-ray irradiation by comet assay; assay type: cell-based
[3] = Cell cycle arrest in human HCT116 cells assessed as accumulation at sub-G1 phase at 4 uM after 48 hrs by FACS flow cytometric analysis (reference value: 1.65 +/- 0.06%); assay type: functional, cell-based; conditions: HCT-116
Mus musculus [4] = experiment: Toxicity in iv dosed CD-1 (ICR) mouse assessed as swelling of nose measured for 14 days; assay type: organism-based; conditions: in vivo, 336 h
Mus musculus [5] = experiment: Toxicity in nude mouse xenografted with human PC3 cells assessed as body weight loss at 30 mg/kg,iv qd administered for 6 days measured on day 13 relative to control; assay type: organism-based, PC-3; design: dose 30 mg/kg; conditions: in vivo, 144 h
[6] = Oral bioavailability in Sprague-Dawley rat at 50 mg/kg; assay type: ADME, organism-based; conditions: in vivo
[7] = Induction of pEGFP-N1 DNA (unknown origin) interstand crosslinking after 2 hrs by alkaline agarose gel shift assay
Mus musculus [8] = experiment: Toxicity in nude mouse xenografted with human PC3 cells assessed as body weight loss at 50 mg/kg,iv administered every 2 days for 5 doses measured on day 16 relative to control; assay type: organism-based, PC-3; design: dose 50 mg/kg; conditions: in vivo, 48 h
Mus musculus [9] = experiment: Toxicity in CD-1 (ICR) mouse assessed as body weight loss at 75 to 105 mg/kg, iv measured on day 8; assay type: organism-based; design: dose 75-105 mg/kg, route intravenous; conditions: in vivo
[10] = Cell cycle arrest in human HCT116 cells assessed as accumulation at S phase at 1 uM after 72 hrs by FACS flow cytometric analysis (reference value: 7.49 +/- 0.95%); assay type: functional, cell-based; conditions: HCT-116
[11] = Terminal half life in Sprague-Dawley rat at 50 mg/kg, po; assay type: ADME, organism-based; design: dose 50 mg/kg, route oral; conditions: in vivo, read-out: beta t1/2 (converted)
[12] = Antitumor activity against human H3347 cells xenografted in nude mouse assessed as tumor growth inhibition at 30 mg/kg,iv qd administered for 6 days measured on day 15 relative to control; assay type: functional
Mus musculus [13] = experiment: Toxicity in CD-1 (ICR) mouse assessed as gross lesions in thymus at 150 mg/kg, iv measured for 14 days; assay type: organism-based; design: dose 150 mg/kg, route intravenous; conditions: in vivo, 336 h
[14] = Cell cycle arrest in human HCT116 cells assessed as accumulation at sub-G1 phase at 1 uM after 24 hrs by FACS flow cytometric analysis (reference value: 1.37 +/- 0.95%); assay type: functional, cell-based; conditions: HCT-116
Mus musculus [15] = experiment: Toxicity in iv dosed CD-1 (ICR) mouse assessed as hypoactivity measured for 14 days; assay type: organism-based; conditions: in vivo, 336 h
[16] = Cell cycle arrest in human HCT116 cells assessed as accumulation at G1 phase at 1 uM after 48 hrs by FACS flow cytometric analysis (reference value: 62.16 +/- 5.94%); assay type: functional, cell-based; conditions: HCT-116
Mus musculus [17] = experiment: Toxicity in iv dosed CD-1 (ICR) mouse assessed as soft feces measured for 14 days; assay type: organism-based; conditions: in vivo, 336 h
[18] = Antitumor activity against human H460 cells xenografted in nude mouse assessed as tumor growth inhibition at 30 mg/kg,iv qd administered for 6 days measured on day 37 relative to control; assay type: functional; conditions: NCI-H460, iv, read-out: TGI
Mus musculus [19] = experiment: Toxicity in iv dosed CD-1 (ICR) mouse assessed as piloerection measured for 14 days; assay type: organism-based; conditions: in vivo, 336 h
Mus musculus [20] = experiment: Toxicity in CD-1 (ICR) mouse assessed as gross lesions in spleen at 150 mg/kg, iv measured for 14 days; assay type: organism-based; design: dose 150 mg/kg, route intravenous; conditions: in vivo, 336 h
[21] = Antitumor activity against human PC3 cells xenografted in nude mouse assessed as tumor growth inhibition at 50 mg/kg,iv administered every 2 days for 5 doses measured on day 24 to 28 relative to control; assay type: functional, PC-3
[22] = Cell cycle arrest in human HCT116 cells assessed as accumulation at G2/M phase at 4 uM after 48 hrs by FACS flow cytometric analysis (reference value: 23.95 +/- 1.87%); assay type: functional, cell-based; conditions: HCT-116
[23] = Cell cycle arrest in human HCT116 cells assessed as accumulation at S phase at 1 uM after 48 hrs by FACS flow cytometric analysis (reference value: 12.11 +/- 4.28%); assay type: functional, cell-based; conditions: HCT-116
[24] = Cell cycle arrest in human HCT116 cells assessed as accumulation at G2/M phase at 1 uM after 72 hrs by FACS flow cytometric analysis (reference value: 12.82 +/- 2.19%); assay type: functional, cell-based; conditions: HCT-116
PC-3 = experiment: Antitumor activity against human PC3 cells xenografted in nude mouse assessed as survival at 30 mg/kg,iv qd administered for 6 days; assay type: functional, organism-based; design: dose 30 mg/kg
[25] = Cell cycle arrest in human HCT116 cells assessed as accumulation at sub-G1 phase at 4 uM after 72 hrs by FACS flow cytometric analysis (reference value: 3.29 +/- 1.39%); assay type: functional, cell-based; conditions: HCT-116
[26] = Cell cycle arrest in human HCT116 cells assessed as accumulation at sub-G1 phase at 1 uM after 72 hrs by FACS flow cytometric analysis (reference value: 3.29 +/- 1.39%); assay type: functional, cell-based; conditions: HCT-116
[27] = Cell cycle arrest in human HCT116 cells assessed as accumulation at G1 phase at 4 uM after 72 hrs by FACS flow cytometric analysis (reference value: 76.29 +/- 2.65%); assay type: functional, cell-based; conditions: HCT-116
[28] = Cytotoxicity against human H1299 cells assessed as growth inhibition after 72 hrs by Alamar Blue assay; assay type: functional, cell-based; conditions: NCI-H1299, 72 h
[29] = Terminal half life in Sprague-Dawley rat at 5 mg/kg, iv; assay type: ADME, organism-based; design: dose 5 mg/kg, route intravenous; conditions: in vivo, read-out: beta t1/2 (converted)
[30] = Cytotoxicity against human HCT116 cells assessed as growth inhibition after 72 hrs by Alamar Blue assay; assay type: functional, cell-based; conditions: HCT-116, 72 h
[31] = Antitumor activity against human PC3 cells xenografted in nude mouse assessed as tumor growth inhibition at 40 mg/kg,iv administered every 2 days for 5 doses measured on day 38 relative to control; assay type: functional; conditions: PC-3, iv, read-out: TGI
[32] = Cell cycle arrest in human HCT116 cells assessed as accumulation at S phase at 2 uM after 24 hrs by FACS flow cytometric analysis (reference value: 18.71 +/- 2.25%); assay type: functional, cell-based; conditions: HCT-116
[33] = Antitumor activity against human PC3 cells xenografted in nude mouse assessed as tumor growth inhibition at 40 mg/kg,iv administered every 2 days for 5 doses measured on day 21 relative to control; assay type: functional, PC-3
[34] = Cell cycle arrest in human HCT116 cells assessed as accumulation at sub-G1 phase at 2 uM after 72 hrs by FACS flow cytometric analysis (reference value: 3.29 +/- 1.39%); assay type: functional, cell-based; conditions: HCT-116
[35] = Cell cycle arrest in human HCT116 cells assessed as accumulation at G1 phase at 2 uM after 72 hrs by FACS flow cytometric analysis (reference value: 76.29 +/- 2.65%); assay type: functional, cell-based; conditions: HCT-116
[36] = Cell cycle arrest in human HCT116 cells assessed as accumulation at G1 phase at 2 uM after 48 hrs by FACS flow cytometric analysis (reference value: 62.16 +/- 5.94%); assay type: functional, cell-based; conditions: HCT-116

CCN(CC)CC(=O)Nc1ccc(NC(=O)Nc2ccc(N(CCCl)CCCl)cc2)cc1
Activity (Mus musculus [1]): Toxic
Activity [2]: 54.9%
Activity (HCT-116): Active
Activity [3]: 10.5%
Activity (Mus musculus [4]): Dose-dependent effect
%max (Mus musculus [5]): -15%
bioavailability [6]: 5.32%
Activity [7]: Dose-dependent effect
%max (Mus musculus [8]): -16%
Activity (Mus musculus [9]): Toxic
Activity [10]: 11.7%
half-life [11]: 60.6 min
%max [12]: 94%
Activity (Mus musculus [13]): Toxic
Activity [14]: 1.58%
Activity (Mus musculus [15]): Dose-dependent effect
Activity [16]: 49.6%
Activity (Mus musculus [17]): Dose-dependent effect
inhibition in vivo at 30 mg/kg [18]: 53%
Activity (Mus musculus [19]): Dose-dependent effect
Activity (Mus musculus [20]): Toxic
%max [21]: 88%
Activity [22]: 54.1%
Activity [23]: 11.9%
Activity [24]: 20.5%
Activity (PC-3): Active
Activity [25]: 17.9%
Activity [26]: 12.4%
Activity [27]: 18.1%
IC50 [28]: 3430 nM
half-life [29]: 21.6 min
IC50 [30]: 820 nM
inhibition in vivo at 40 mg/kg [31]: 3%
Activity [32]: 23.9%
%max [33]: 68%
Activity [34]: 19.7%
Activity [35]: 38.7%
Activity [36]: 49.5%
